Measurements published in patent US11111218B2, “Crystalline form of 5-amino-2,3-dihydrophthalazine-1,4-dione” (METRIOPHARM AG, priority 2016, dated 2021).

Settings: TG-DSC
From the text: Upper trace: Mass loss determined by TG. Lower trace: Heat flow determined by DSC

thermal stability up to (crystalline solid): up to 320±1 °C
Compound: Nc1cccc2c(=O)[nH][nH]c(=O)c12 [Form II, 5-amino-2,3-dihydrophthalazine-1,4-dione]
solid state transformation to other forms (until thermal degradation of the crystalline compound sets in): no solid state transformation to other forms is observed
